The assay has as its target T1, HCV polymerase (Hepatitis C virus genotype 1b, UniProt Q9WMX2).
T1 construct: (His)6 (C)
The assay can be described thus: biochemical. As to conditions: polymerase assay of Biological Example 1; read-out: NS5B polymerase IC50.
The term IC50 denotes the concentration needed to halve the response being measured. With `CNC(=O)c1c(-c2ccc(C)cc2)oc2nc(N(CCCCC(=O)O)S(C)(=O)=O)c(CCO)cc12` [Example 29.999997, 5-(N-(5-(2-hydroxyethyl)-3-(methylcarbamoyl)-2-p-tolylfuro[2,3-b]pyridin-6-yl)methylsulfonamido) pentanoic acid], the IC50 came out at 48 nM.
The value for `C=C(CCCN(c1nc2oc(-c3ccc(C)cc3)c(C(=O)NC)c2cc1C1CC1)S(C)(=O)=O)C(=O)OC` [Example 29.9997, methyl 5-(N-(5-cyclopropyl-3-(methylcarbamoyl)-2-p-tolylfuro[2,3-b]pyridin-6-yl)methylsulfonamido)-2-methylenepentanoate] was 15 nM; that for `CNC(=O)c1c(-c2ccc(F)cc2)oc2nc3c(cc12)C(C)CCN3S(C)(=O)=O` (stereo not shown) [Example 36.6, 2-(4-fluorophenyl)-N,5-dimethyl-8-(methylsulfonyl)-5,6,7,8-tetrahydrofuro[2,3-b][1,8]naphthyridine-3-carboxamide] was 231 nM; that for `CCc1cc2c(C(=O)NC)c(-c3ccc(F)cc3)oc2nc1N(CCCS(=O)(=O)C1CC1)S(C)(=O)=O` [Example 23.991, 6-(N-(3-(cyclopropylsulfonyl)propyl)methylsulfonamido)-5-ethyl-2-(4-fluorophenyl)-N-methylfuro[2,3-b]pyridine-3-carboxamide] was 61 nM.
For `CNC(=O)c1c(-c2ccc(C)cc2)oc2nc(N(CCCC(C#N)CC(=O)O)S(C)(=O)=O)c(C3CC3)cc12` (stereo not shown) [Example 29.999995, 3-cyano-6-(N-(5-cyclopropyl-3-(methylcarbamoyl)-2-p-tolylfuro[2,3-b]pyridin-6-yl)methylsulfonamido) hexanoic acid] the value was 3 nM; for `CNC(=O)c1c(-c2ccc(C)cc2)oc2nc(N(CCCCCO)S(C)(=O)=O)c(I)cc12` [Example 23.99991, 6-(N-(5-hydroxypentyl)methylsulfonamido)-5-iodo-N-methyl-2-p-tolylfuro[2,3-b]pyridine-3-carboxamide], 9 nM; for `CNC(=O)c1c(-c2ccc(C)cc2)oc2nc(N(CCCC3CCCC3C(=O)O)S(C)(=O)=O)c(C3CC3)cc12` (stereo not shown) [Example 29.4, 2-(3-(N-(5-cyclopropyl-3-(methylcarbamoyl)-2-p-tolylfuro[2,3-b]pyridin-6-yl)methylsulfonamido)propyl) cyclopentanecarboxylic acid], 3 nM.
Take `CNC(=O)c1c(-c2ccc(C)cc2)oc2nc(N(CCCC(CC(=O)O)OCCOC)S(C)(=O)=O)c(C3CC3)cc12` (stereo not shown) [Example 29.999996, 6-(N-(5-cyclopropyl-3-(methylcarbamoyl)-2-p-tolylfuro[2,3-b]pyridin-6-yl)methylsulfonamido)-3-(2-methoxyethoxy) hexanoic acid]: the IC50 is 12 nM.
In the case of `CCc1ccc(-c2oc3nc(N(CCCC(C)C(=O)O)S(C)(=O)=O)c(C4CC4)cc3c2C(=O)NC)cc1` (stereo not shown) [Example 29.9995, 5-(N-(5-cyclopropyl-2-(4-ethylphenyl)-3-(methylcarbamoyl)furo[2,3-b]pyridin-6-yl)methylsulfonamido)-2-methylpentanoic acid], the IC50 worked out at 2 nM.
The value for `CCc1ccc(-c2oc3nc(N(CCCC(C)(OC)C(=O)O)S(C)(=O)=O)c(C4CC4)cc3c2C(=O)NC)cc1` (stereo not shown) [Example 29.9991, 5-(N-(5-cyclopropyl-2-(4-ethylphenyl)-3-(methylcarbamoyl)furo[2,3-b]pyridin-6-yl)methylsulfonamido)-2-methoxy-2-methylpentanoic acid] was 3 nM; that for `CCCc1cc2c(C(=O)NC)c(-c3ccc(F)cc3)oc2nc1N(C)S(C)(=O)=O` [Example 4.96, 2-(4-fluorophenyl)-N-methyl-6-(N-methylmethylsulfonamido)-5-propylfuro[2,3-b]pyridine-3-carboxamide] was 78 nM; that for `CNC(=O)c1c(-c2ccc(F)cc2)oc2nc3c(cc12)C(C)C(O)CCCCN3S(C)(=O)=O` (stereo not shown) [Example 38, 2-(4-Fluoro-phenyl)-6-hydroxy-11-methanesulfonyl-5-methyl-6,7,8,9,10,11-hexahydro-5H-1-oxa-11,12-diaza-cyclonona[f]indene-3-carboxylic acid methylamide] was 509 nM.
For the compound `CNC(=O)c1c(-c2ccc(C)cc2)oc2nc(N(CCCCO)S(C)(=O)=O)c(I)cc12` [Example 23.9996, 6-(N-(4-hydroxybutyl)methylsulfonamido)-5-iodo-N-methyl-2-p-tolylfuro[2,3-b]pyridine-3-carboxamide], the IC50 was found to be 19 nM.
In the case of `CCc1cc2c(C(=O)NC)c(-c3ccc(F)cc3)oc2nc1N(CC1CCN(C(=O)OC(C)(C)C)CC1)S(C)(=O)=O` [Example 21.997, tert-butyl 4-((N-(5-ethyl-2-(4-fluorophenyl)-3-(methylcarbamoyl)furo[2,3-b]pyridin-6-yl)methylsulfonamido)methyl)piperidine-1-carboxylate], the IC50 was 148 nM.
The value for `CCc1cc2c(C(=O)NC)c(-c3ccc(Oc4ccccc4)cc3)oc2nc1N(C)S(C)(=O)=O` [Example 17, 5-ethyl-N-methyl-6-(N-methylmethylsulfonamido)-2-(4-phenoxyphenyl)furo[2,3-b]pyridine-3-carboxamide] was 128 nM; that for `CNC(=O)c1c(-c2ccc(C)cc2)oc2nc(N(CCC[C@H](C)C(=O)OCOP(=O)(O)O)S(C)(=O)=O)c(C3CC3)cc12` [Example 49, (S)-(phosphonooxy)methyl 5-(N-(5-cyclopropyl-3-(methylcarbamoyl)-2-(p-tolyl)furo[2,3-b]pyridin-6-yl)methylsulfonamido)-2-methylpentanoate] was 2 nM.
The value for `CNC(=O)c1c(-c2ccc(F)cc2)oc2nc(N(C)S(C)(=O)=O)c(CCC#N)cc12` [Example 14, 5-(2-cyanoethyl)-2-(4-fluorophenyl)-N-methyl-6-(N-methylmethylsulfonamido)furo[2,3-b]pyridine-3-carboxamide] was 147 nM; that for `CNC(=O)c1c(-c2ccc(C)cc2)oc2nc(N(CCCC3(C(=O)O)CCC3)S(C)(=O)=O)c(C3CC3)cc12` [Example 29.1, 1-{3-[(5-Cyclopropyl-3-methylcarbamoyl-2-p-tolyl-furo[2,3-b]pyridin-6-yl)-methanesulfonyl-amino]-propyl}-cyclobutanecarboxylic acid] was 2 nM.
Consider `CN(c1nc2oc(-c3ccc(F)cc3)c(C(N)=O)c2cc1C1CC1)S(C)(=O)=O` [Example 2.6], for which the IC50 was determined as 297 nM.
The value for `CNC(=O)c1c(-c2ccc(C)cc2)oc2nc(N(CCC3CCCC3C(=O)O)S(C)(=O)=O)c(C3CC3)cc12` (stereo not shown) [Example 29.3, 2-(2-(N-(5-cyclopropyl-3-(methylcarbamoyl)-2-p-tolylfuro[2,3-b]pyridin-6-yl)methylsulfonamido)ethyl) cyclopentanecarboxylic acid] was 6 nM.
The value for `CNC(=O)c1c(-c2ccc(C)cc2)oc2nc(N(CCCC(C)(CCOC)C(=O)O)S(C)(=O)=O)c(C3CC3)cc12` (stereo not shown) [Example 42.1, 5-(N-(5-cyclopropyl-3-(methylcarbamoyl)-2-p-tolylfuro[2,3-b]pyridin-6-yl)methylsulfonamido)-2-(2-methoxyethyl)-2-methylpentanoic acid] was 3 nM; that for `CCc1cc2c(C(=O)NC)c(-c3ccc(F)cc3)oc2nc1N(CCCC(=O)N(C)C)S(C)(=O)=O` [Example 22.96, 6-(N-(4-(dimethylamino)-4-oxobutyl)methylsulfonamido)-5-ethyl-2-(4-fluorophenyl)-N-methylfuro[2,3-b]pyridine-3-carboxamide] was 131 nM.
The value for `CNC(=O)c1c(-c2ccc(F)cc2)oc2nc(N(C)S(C)(=O)=O)c(C(C)C)cc12` [Example 6.2, 2-(4-fluorophenyl)-5-isopropyl-N-methyl-6-(N-methylmethylsulfonamido)furo[2,3-b]pyridine-3-carboxamide] was 58 nM.
For the compound `CNC(=O)c1c(-c2ccc(C)cc2)oc2nc(N(C)S(C)(=O)=O)c(CCCO)cc12` [Example 9.2, 5-(3-hydroxypropyl)-N-methyl-6-(N-methylmethylsulfonamido)-2-p-tolylfuro[2,3-b]pyridine-3-carboxamide], the concentration for half-maximal inhibition (IC50) was determined as 82 nM.
Turning to `CNC(=O)c1c(-c2ccc(C)cc2)oc2nc(N(CCCC3(C(=O)O)CCNCC3)S(C)(=O)=O)c(C3CC3)cc12` [Example 29.99991, 4-(3-(N-(5-cyclopropyl-3-(methylcarbamoyl)-2-p-tolylfuro[2,3-b]pyridin-6-yl)methylsulfonamido)propyl) piperidine-4-carboxylic acid], the half-maximal inhibitory concentration (IC50) is 129 nM.
The value for `CNC(=O)c1c(-c2ccc(F)cc2)oc2nc(N(CCCCC#N)S(C)(=O)=O)c(I)cc12` [Example 18.9, 6-(N-(4-cyanobutyl)methylsulfonamido)-2-(4-fluorophenyl)-5-iodo-N-methylfuro[2,3-b]pyridine-3-carboxamide] was 109 nM.
For the compound `CNC(=O)c1c(-c2ccc(C)cc2)oc2nc(N(CCCCCCCCCC(=O)O)S(C)(=O)=O)c(C3CC3)cc12` [Example 29.993, 10-(N-(5-cyclopropyl-3-(methylcarbamoyl)-2-p-tolylfuro[2,3-b]pyridin-6-yl)methylsulfonamido) decanoic acid], the IC50 was determined as 2 nM.
The value for `CNC(=O)c1c(-c2ccc(C)cc2)oc2nc(N(CCC[C@H](COC)C(=O)N3C(=O)OC[C@@H]3Cc3ccccc3)S(C)(=O)=O)c(C3CC3)cc12` [Example 47.72] was 6 nM.
For `CNC(=O)c1c(-c2ccc(C)cc2)oc2nc(N(CCCCc3nn[nH]n3)S(C)(=O)=O)c(C3CC3)cc12` [Example 29.93, 6-(N-(4-(2H-tetrazol-5-yl)butyl)methylsulfonamido)-5-cyclopropyl-N-methyl-2-p-tolylfuro[2,3-b]pyridine-3-carboxamide] the value was 3 nM; for `CNC(=O)c1c(-c2ccc(F)cc2)oc2nc(N(C)S(C)(=O)=O)c(CCCC(O)CO)cc12` (stereo not shown) [Example 4.92, 5-(4,5-dihydroxypentyl)-2-(4-fluorophenyl)-N-methyl-6-(N-methylmethylsulfonamido)furo[2,3-b]pyridine-3-carboxamide], 223 nM; for `CNC(=O)c1c(-c2ccc(C)cc2)oc2nc(N(CCCCN)S(C)(=O)=O)c(C3CC3)cc12` [Example 23.999993, 6-(N-(4-aminobutyl)methylsulfonamido)-5-cyclopropyl-N-methyl-2-p-tolylfuro[2,3-b]pyridine-3-carboxamide], 16 nM.

The record behind these values is patent publication US20120015907A1, “Furopyridine compounds and uses thereof” (NOVARTIS AG, priority 2010, published 2012).
